# Test system: PD-L1
# Assay: PD-L1 expression in gastric cancer cells by flow cytometer
# Type: cell-based
# Conditions: AGS; metformin at a concentration 50 times higher than that of JH-001 (FIG. 8)
# Method: After treating an AGS cell line, a gastric cancer cell line, with JH-001 for each concentration, the expression of PD-L1, an immunocompromised marker, was confirmed using a flow cytometer. […] In addition, metformin, known as a mitochondria-targeting drug, was treated at a concentration 50 times higher than that of JH-001 and the expression level of PD-L1 was confirmed. As a result, it was confirmed that JH-001 according to the present disclosure inhibited PD-L1 expression about 2 times higher than metformin treatment, even though JH-001 was treated at a much lower concentration (FIG. 8).
structure (smiles),measurement,value
"CN(CCCNC(=O)CCCCC[P+](c1ccccc1)(c1ccccc1)c1ccccc1)C(=N)NC(=N)N [JH-001, (6-((3-(3-carbamimidoyl-1-methylguanidino)propyl)amino)-6-oxohexyl)triphenylphosphonium]",inhibition of PD-L1 expression relative to metformin treatment,about 2 times
